Literature values in patent US20190375786A1, “STABLE PEPTIDES AND METHODS OF USE THEREOF” (Fred Hutchinson Cancer Research Center, priority 2016, published 2019).
Positions of bridges follow the written chain, without caps; N, C: chain ends. Residues, ends and D or L forms follow the SMILES beside them.

Conditions: oral administration; cited from earlier work

## C[C@@H]1NC(=O)[C@@H]2CCCN2C(=O)[C@H](CC(N)=O)NC(=O)[C@@H]2CSSC[C@H](N)C(=O)N[C@H]3CSSC[C@H](NC1=O)C(=O)N[C@@H]([C@@H](C)O)C(=O)NCC(=O)N[C@H](C(=O)N[C@@H](Cc1ccc(O)cc1)C(=O)O)CSSC[C@H](NC(=O)[C@H](Cc1ccc(O)cc1)NC(=O)[C@H](CCC(=O)O)NC3=O)C(=O)N2 [linaclotide] (H-CCEYCCNPACTGCY-OH; disulfide 1-6, 2-10, 5-13)
  systemic absorption into the plasma: not significantly systemically absorbed
